Measured values reported in patent publication US20260174747A1, “COMPUTER IMPLEMENTED METHODS OF GENERATING DOSE RECOMMENDATIONS” (National University of Singapore, priority 2022, published 2026).

Assay: Retrospective analysis of tacrolimus trough levels (TTL) under SOC dosing, 30 days after pediatric liver transplantation
Type: in vivo, pediatric liver transplant patients
Experimental: CURATE.AI requires two components to be supplied into the platform as inputs: the administered tacrolimus dose in mg (dose) and the corresponding TTL in ng/ml (response) to generate a personalized profile for each patient. […] The response input was the corresponding TTL response measured the next day, right before the morning dose. Days with two measurements of TTL (taken in the morning and evening) instead of one, which is the standard frequency, were excluded. TTL measurements <2 ng/ml were assessed to be inaccurate as the measurement equipment was unable to provide resolution for TTL<2 ng/ml, and were thus excluded. All measurements in the records were only taken once each. Doses recorded from day 30 post-transplant onwards were not included as part of this study since it is during the initial post-transplant period that fluctuations in TTL are common; thereby requiring frequent adjustments in drug dosing. […] Doses recorded from the day of discharge onwards were assessed to be unreliable, as confirmation of the doses administered was not possible, and thus excluded. This study used dose-response pairs over a set of consecutive days for each patient for the analysis by CURATE.AI. Dose ranges were categorized as low (<2 mg), medium (2 mg to <4 mg), and high (≥4 mg).
The normality of the data distribution was tested with the Shapiro-Wilk test. Continuous variables were represented as mean (standard deviation (SD)) or median (interquartile range (IQR)), depending on the normality of the data type. Two-sided Wilcoxon signed-rank test was used to compare the medians of two non-parametric groups. Two-sided paired t-test was used to compare the means of two related parametric groups. The statistical significance was defined as p<0.05. All analyses were performed in Python (version 3.9.13).
The grey region represents the therapeutic range of between and inclusive of 7 and 10 ng/ml. Blue and orange markers represent TTL outside and within the therapeutic range, respectively. […]

C=CC[C@@H]1/C=C(\C)C[C@H](C)C[C@H](OC)[C@H]2O[C@@](O)(C(=O)C(=O)N3CCCC[C@H]3C(=O)O[C@H](/C(C)=C/[C@@H]3CC[C@@H](O)[C@H](OC)C3)[C@H](C)[C@@H](O)CC1=O)[C@H](C)C[C@@H]2OC [tacrolimus]
days within the therapeutic range (TTL 7 to 10 ng/ml), mean (16 patients, mean (SD)): 42.18 % of days
mean TTL (tacrolimus trough level) (all 16 patients, first 30 days post-transplant, mean (SD)): 8.79 ng/mL
time to first achieve the therapeutic range (TTL 7 to 10 ng/ml), median (median (IQR)): 5.00 days
